Assay results reported in patent publication US20140065070A1, “METHODS OF PREPARING TRIAZOLE-CONTAINING RADIOIODINATED COMPOUNDS” (MCMASTER UNIVERSITY, priority 2012, published 2014).

Key:
[1] = Log D pH 7.4 measurement (n-octanol/PBS); assay type: physicochemical; details: n-octanol/PBS pH 7.4
Description: The samples were vortexed for 20 min and centrifuged at 6000 rpm for 5 min. Aliquots (0.1 mL) were subsequently removed from both the aqueous and the organic n-octanol layers and counted separately in a γ counter (Wallac Wizard 1470 automatic γ counter). Measurements represent three separate experiments with four extractions in each set for a total of twelve data points. The partition coefficients were then calculated using the equation D=(activity concentration in n-octanol)/(activity concentration in aqueous layer).

LNCaP xenografts = assay: Biodistribution study of 123I-TAAG-PSMA in NCr nude mice bearing LNCaP xenografts; assay type: in vivo, NCr nude mice
Description: LNCaP cells derived from lymph node metastases of human prostate carcinoma were purchased from ATCC. Cells were propagated using RPMI 1640 media supplemented with 10% Fetal Bovine Serum, 4 mM L-glutamine, 1 mM Sodium Pyruvate, 10 mM Hepes, 1% Penicillin Streptomycin (Invitrogen, Mississauga ON) and 0.25% D-glucose (Sigma, Oakville ON) and grown at 37° C. and 5% CO2. NCr nude homo male mice ordered from Taconic (Germantown, N.Y., USA) were injected with 2.0×10^6 LNCaP cells in 100 μL Matrigel/DPBS (1:1) subcutaneously into the right flank at 7 to 8 weeks of age. […] Animals were anesthetized with 3% isoflurane and euthanized by cervical dislocation. Blood, bone, liver, gall bladder, spleen, small intestine (with contents), large intestine and caecum (with contents), bladder, urine, skeletal muscle, brain, LNCaP tumour, heart, lung, salivary glands, kidneys, stomach (with contents), prostate, thyroid/trachea, adrenals, esophagus, tail, adipose and testes were collected, weighed and counted in a Perkin Elmer Wizard 1470 Automatic Gamma Counter. Decay correction was used to normalize organ activity measurements to time of dose preparation for data calculations with respect to injected dose (i.e. % ID/g).

LNCaP tumours = assay: SPECT-CT imaging study of 123I-TAAG-PSMA; assay type: in vivo, NCr mice
Description: Prior to imaging, mice were anaesthetized with 2.5% isoflurane and maintained under same conditions for the length of the SPECT and CT scans. Imaging was conducted on the first mouse at 2 and 6 hours post injection and on the second mouse at 4 and 23 hours post injection. At each time point, multiple SPECT acquisitions were completed for 32 frames at 10 sec/frame for the 2 hour time point, 20 sec/frame for the 4 and 6 hour time point or 30 sec/frame for the 23 hour time point on a GammaMedica Ideas X-SPECT system (North Ridge, Calif.). CT acquisitions consisted of 512 projections acquired over 360° with 75 Kvp, 205 mA cone beam CT system. Cobra Exxim software (Feldkamp filtered backprojection cone beam reconstruction software) was used to reconstruct the images at a voxel size of 155 microns and a matrix size of 512^3. An OS-EM interactive reconstructed method (2 iterations/8 subsets) was used to reconstruct the SPECT data which was fused to the CT data using in-house software. AMIDE software was used to analyze the images.

[2] = at pH 7.4; comparison value; cited from earlier work
[3] = Stability of I-TAAG construct in solution; assay type: physicochemical; details: 48 hours
Description: Reactions were complete within 10 min and the product was isolated by solid-phase extraction or semi-preparative HPLC.

[4] = Biodistribution study of 123I-TAAG in normal Balb/c mice; assay type: in vivo; details: tail vein injection
Excerpt: Animals were anesthetized with 3% isoflurane and euthanized by cervical dislocation. Blood, heart, lungs, liver, spleen, kidneys, adrenals, stomach (with contents), large intestine and caecum (with contents) and small intestines (with contents), bladder and urine, thyroid/trachea, bone, skeletal muscle and tail were collected, weighed and counted in a Perkin Elmer Wizard 1470 Automatic Gamma Counter. Decay correction was used to normalize organ activity measurements to time of dose preparation for data calculations with respect to injected dose (i.e. % ID/g).

[5] = 1 hr + block (PMPA 10 mg/kg), NCr nude mice bearing LNCaP xenografts, mean ± SEM
[6] = male, NCr nude, mouse, in vivo, 1 h
[7] = male, NCr nude, mouse, in vivo, 23 h
[8] = male, NCr nude, mouse, in vivo, 24 h

O=C(O)CC[C@H](NC(=O)N[C@@H](CCCCNC(=O)Cn1cc(I)nn1)C(=O)O)C(=O)O [^123I-TAAG-PSMA, (S)-2-(3-((S)-1-carboxy-5-(2-(4-iodo-1H-1,2,3-triazol-1-yl)acetamido)pentyl)ureido)pentanedioic acid]
logD [1]: -3.23 ± 0.05 | Tissue distribution, Adipose (LNCaP xenografts; [5]): 0.35 ± 0.21 % ID/g | Tissue distribution, Adrenals (LNCaP xenografts; [5]): 3.34 ± 1.49 % ID/g | Tissue distribution, Bladder (LNCaP xenografts; [5]): 10.78 ± 4.16 % ID/g | Tissue distribution, Blood (LNCaP xenografts; [5]): 0.32 ± 0.06 % ID/g | Tissue distribution, Bone (LNCaP xenografts; [5]): 0.26 ± 0.02 % ID/g | Tissue distribution, Brain (LNCaP xenografts; [5]): 0.05 ± 0.02 % ID/g | Tissue distribution, Esophagus (LNCaP xenografts; [5]): 0.32 ± 0.04 % ID/g | Tissue distribution, Gall Bladder (LNCaP xenografts; [5]): 1.32 ± 0.53 % ID/g | Tissue distribution, Heart (LNCaP xenografts; [5]): 0.15 ± 0.04 % ID/g | Tissue distribution, Kidneys (LNCaP xenografts; [5]): 9.57 ± 5.17 % ID/g | Tissue distribution, Large Intestine + Caecum (LNCaP xenografts; [5]): 0.12 ± 0.03 % ID/g | Tissue distribution, Liver (LNCaP xenografts; [5]): 2.25 ± 0.29 % ID/g | Tissue distribution, Lung (LNCaP xenografts; [5]): 0.36 ± 0.08 % ID/g | Tissue distribution, Prostate (LNCaP xenografts; [5]): 3.85 ± 2.91 % ID/g | Tissue distribution, Salivary Glands (LNCaP xenografts; [5]): 0.52 ± 0.12 % ID/g | Tissue distribution, Skeletal Muscle (LNCaP xenografts; [5]): 0.19 ± 0.03 % ID/g | Tissue distribution, Small Intestine (LNCaP xenografts; [5]): 0.30 ± 0.09 % ID/g | Tissue distribution, Spleen (LNCaP xenografts; [5]): 0.13 ± 0.03 % ID/g | Tissue distribution, Stomach (LNCaP xenografts; [5]): 0.49 ± 0.07 % ID/g | Tissue distribution, Testes (LNCaP xenografts; [5]): 1.16 ± 1.05 % ID/g | Tissue distribution, Thyroid/Trachea (LNCaP xenografts; [5]): 0.62 ± 0.24 % ID/g | Tissue distribution, Urine (LNCaP xenografts; [5]): 486.70 ± 163.60 % ID/g | Tissue distribution, Adipose (LNCaP xenografts; [6]): 1.73 ± 0.26 % ID/g | Tissue distribution, Adrenals (LNCaP xenografts; [6]): 8.45 ± 2.13 % ID/g | Tissue distribution, Bladder (LNCaP xenografts; [6]): 1.78 ± 0.23 % ID/g | Tissue distribution, Blood (LNCaP xenografts; [6]): 0.81 ± 0.07 % ID/g | Tissue distribution, Bone (LNCaP xenografts; [6]): 0.41 ± 0.07 % ID/g | Tissue distribution, Brain (LNCaP xenografts; [6]): 0.06 ± 0.01 % ID/g | Tissue distribution, Esophagus (LNCaP xenografts; [6]): 1.3 ± 0.26 % ID/g | Tissue distribution, Gall Bladder (LNCaP xenografts; [6]): 1.28 ± 0.26 % ID/g | Tissue distribution, Heart (LNCaP xenografts; [6]): 0.85 ± 0.29 % ID/g | Tissue distribution, Kidneys (LNCaP xenografts; [6]): 137.54 ± 11.43 % ID/g | Tissue distribution, Large Intestine + Caecum (LNCaP xenografts; [6]): 0.27 ± 0.06 % ID/g | Tissue distribution, Liver (LNCaP xenografts; [6]): 2.32 ± 0.28 % ID/g | Tissue distribution, Lung (LNCaP xenografts; [6]): 2.58 ± 0.46 % ID/g | Tissue distribution, Prostate (LNCaP xenografts; [6]): 1.89 ± 0.62 % ID/g | Tissue distribution, Salivary Glands (LNCaP xenografts; [6]): 2.97 ± 0.95 % ID/g | Tissue distribution, Skeletal Muscle (LNCaP xenografts; [6]): 0.33 ± 0.04 % ID/g | Tissue distribution, Small Intestine (LNCaP xenografts; [6]): 0.64 ± 0.13 % ID/g | Tissue distribution, Spleen (LNCaP xenografts; [6]): 4.98 ± 1.31 % ID/g | Tissue distribution, Stomach (LNCaP xenografts; [6]): 0.90 ± 0.07 % ID/g | Tissue distribution, Testes (LNCaP xenografts; [6]): 0.69 ± 0.10 % ID/g | Tissue distribution, Thyroid/Trachea (LNCaP xenografts; [6]): 1.46 ± 0.3 % ID/g | Tissue distribution, Urine (LNCaP xenografts; [6]): 43.99 ± 5.54 % ID/g | Tumor to tissue ratio, Tumour/blood (LNCaP xenografts; [6]): 28.22 ± 7.12 | Tumor to tissue ratio, Tumour/skeletal muscle (LNCaP xenografts; [6]): 78.06 ± 30.62 | activity retained in the tumour (LNCaP xenografts; [7]): 15 % ID/g | remaining activity in the thyroid (LNCaP xenografts; [7]): about 10 % ID/g | Tissue distribution, Adipose (LNCaP xenografts; [8]): 0.02 ± 0.01 % ID/g | Tissue distribution, Adrenals (LNCaP xenografts; [8]): 0.33 ± 0.07 % ID/g | Tissue distribution, Bladder (LNCaP xenografts; [8]): 0.08 ± 0.02 % ID/g | Tissue distribution, Blood (LNCaP xenografts; [8]): 0.01 ± 0.00 % ID/g | Tissue distribution, Bone (LNCaP xenografts; [8]): 0.04 ± 0.01 % ID/g | Tissue distribution, Brain (LNCaP xenografts; [8]): 0.03 ± 0.00 % ID/g | Tissue distribution, Esophagus (LNCaP xenografts; [8]): 0.07 ± 0.01 % ID/g | Tissue distribution, Gall Bladder (LNCaP xenografts; [8]): 0.19 ± 0.08 % ID/g | Tissue distribution, Heart (LNCaP xenografts; [8]): 0.01 ± 0.00 % ID/g | Tissue distribution, Kidneys (LNCaP xenografts; [8]): 0.99 ± 0.27 % ID/g | Tissue distribution, LNCap Tumour (LNCaP xenografts; [8]): 15.31 ± 4.23 % ID/g | Tissue distribution, Large Intestine + Caecum (LNCaP xenografts; [8]): 0.04 ± 0.01 % ID/g | Tissue distribution, Liver (LNCaP xenografts; [8]): 0.03 ± 0.01 % ID/g | Tissue distribution, Lung (LNCaP xenografts; [8]): 0.01 ± 0.00 % ID/g | Tissue distribution, Prostate (LNCaP xenografts; [8]): 0.09 ± 0.03 % ID/g | Tissue distribution, Salivary Glands (LNCaP xenografts; [8]): 0.05 ± 0.01 % ID/g | Tissue distribution, Skeletal Muscle (LNCaP xenografts; [8]): 0.01 ± 0.00 % ID/g | Tissue distribution, Small Intestine (LNCaP xenografts; [8]): 0.02 ± 0.01 % ID/g | Tissue distribution, Spleen (LNCaP xenografts; [8]): 0.03 ± 0.00 % ID/g | Tissue distribution, Stomach (LNCaP xenografts; [8]): 0.07 ± 0.03 % ID/g | Tissue distribution, Testes (LNCaP xenografts; [8]): 0.01 ± 0.00 % ID/g | Tissue distribution, Thyroid/Trachea (LNCaP xenografts; [8]): 9.36 ± 1.05 % ID/g | Tissue distribution, Urine (LNCaP xenografts; [8]): 1.04 ± 0.39 % ID/g | Tumor to tissue ratio, Tumour/blood (LNCaP xenografts; [8]): 1867 ± 499.72 | Tumor to tissue ratio, Tumour/skeletal muscle (LNCaP xenografts; [8]): 1531 ± 422.74 | SPECT-CT image uptake (LNCaP tumours; 23-24 hours post injection): the activity was found only in the tumour and in the thyroid | SPECT-CT image uptake (LNCaP tumours; two hours post injection): uptake of the agent in the kidneys, bladder and a small amount in the tumour

O=C(O)c1ccc(I)cc1 [p-iodobenzoic acid]
log D [2]: 0.07

O=C(O)Cn1cc(I)nn1 [^123I-TAAG, 2-(4-iodo-1H-1,2,3-triazol-1-yl)acetic acid]
logD [1]: -2.58 ± 0.01 | stability in solution [3]: stable over 48 hours in solution with no signs of deiodination | clearance from organs (biodistribution) [4]: clears all major organs quickly and collects in the bladder within 30 minutes
